Laboratory results from ChEMBL document CHEMBL1154799, “Asymmetrically substituted cationic indole- and fluorene porphyrins inhibit tumor proliferation in small intestinal neuroendocrine tumors and medullary thyroid carcinomas” (Eur J Med Chem, 2010).
Active and inactive are the calls of the source. The rule behind the calls is not given here.

Legend:
[1] = system: Nucleic Acid; experiment: Binding affinity to oligonucleotide d(CGTACG)2 by DNA intercalation assay; assay type: nucleic-acid assay
[2] = system: Nucleic Acid; experiment: Binding affinity to calf thymus DNA assessed as change in melting temperature; assay type: nucleic-acid assay; details: Bos taurus
[3] = system: KRJ-I; experiment: Antiproliferative activity against human KRJ-I cells at 10 uM after 72 hrs by WST-1 assay; assay type: functional, cell-based
[4] = system: MTC-SK; experiment: Antiproliferative activity against human MTC-SK cells at 10 uM after 72 hrs by WST-1 assay; assay type: functional, cell-based
[5] = (§1) Cytotoxicity against human KRJ-I cells assessed as decrease in cell viability at 10 uM after 72 hrs by WST-1 assay; assay type: functional
[6] = system: KRJ-I; experiment: as §1; assay type: functional
[7] = (§2) Cytotoxicity against human MTC-SK cells assessed as decrease in cell viability at 10 uM after 72 hrs by WST-1 assay; assay type: functional
[8] = system: MTC-SK; experiment: as §2; assay type: functional
[9] = (§3) Antiproliferative activity against human KRJ-I cells after 72 hrs by WST-1 assay; assay type: functional, cell-based
[10] = system: KRJ-I; experiment: as §3; assay type: functional, cell-based
[11] = (§4) Antiproliferative activity against human MTC-SK cells after 72 hrs by WST-1 assay; assay type: functional, cell-based
[12] = system: MTC-SK; experiment: as §4; assay type: functional, cell-based
[13] = (§5) Cytotoxicity against human KRJ-I cells assessed as decrease in cell viability after 72 hrs by WST-1 assay; assay type: functional, cell-based
[14] = system: KRJ-I; experiment: as §5; assay type: functional, cell-based
[15] = (§6) Cytotoxicity against human MTC-SK cells assessed as decrease in cell viability after 72 hrs by WST-1 assay; assay type: functional, cell-based
[16] = system: MTC-SK; experiment: as §6; assay type: functional, cell-based
[17] = Antiproliferative activity against human HF-SAR cells at 10 uM after 72 hrs by WST-1 assay; assay type: cell-based
[18] = Cytotoxicity against human HF-SAR cells assessed as decrease in cell viability at 10 uM after 72 hrs by WST-1 assay; assay type: cell-based
[19] = system: KRJ-I; experiment: Cytotoxicity against human KRJ-I cells assessed as induction of protease activity at 10 uM after 72 hrs by luminescence based assay; assay type: functional, cell-based
[20] = Cytotoxicity against human MTC-SK cells assessed as induction of protease activity at 10 uM after 72 hrs by luminescence based assay; assay type: functional

SMILES	Activity [1]	Activity [2]	Activity [3]	Activity [4]	Activity [5] [%]	Activity [6]	Activity [7] [%]	Activity [8]	IC50 [9] [µM]	Activity [10]	IC50 [11] [µM]	Activity [12]	IC50 [13] [µM]	Activity [14]	IC50 [15] [µM]	Activity [16]	Activity [17]	Activity [18]	Activity [19]	Activity [20] [%]
C[n+]1ccc(-c2c3nc(c(-c4cc[n+](C)cc4)c4ccc([nH]4)c(-c4cc(-c5ccc6c(c5)C(C)(C)c5ccccc5-6)c[n+](C)c4)c4nc(c(-c5cc[n+](C)cc5)c5ccc2[nH]5)C=C4)C=C3)cc1	Active	–	–	–	–	–	–	–	–	–	–	–	–	–	–	–	–	–	–	–
C[n+]1ccc(-c2c3nc(c(-c4cc[n+](C)cc4)c4ccc([nH]4)c(-c4cc[n+](C)cc4)c4nc(c(-c5ccc(-c6cn(S(=O)(=O)c7ccccc7)c7ccccc67)cc5)c5ccc2[nH]5)C=C4)C=C3)cc1.[Cl-].[Cl-].[Cl-]	–	Active	Active	Active	37	Active	74	Active	10	Dose-dependent effect	10	Dose-dependent effect	10	Dose-dependent effect	10	Dose-dependent effect	Active	Not Active	inactive	64
C[n+]1ccc(-c2c3nc(c(-c4cc(-c5ccc6c(c5)C(C)(C)c5ccccc5-6)c[n+](C)c4)c4ccc([nH]4)c(-c4cc[n+](C)cc4)c4nc(c(-c5cc(-c6ccc7c(c6)C(C)(C)c6ccccc6-7)c[n+](C)c5)c5ccc2[nH]5)C=C4)C=C3)cc1.[Cl-].[Cl-].[Cl-].[Cl-]	Active	Active	Active	Active	95	Active	91	Active	22.7	Dose-dependent effect	22.7	Dose-dependent effect	22.7	Dose-dependent effect	22.7	Dose-dependent effect	Active	Not Active	inactive	46
